What was measured:
Assay type in all cases: cell-based
[1] = test system: primary cells from the human umbilical vein (HUVEC); assay: Transwell Matrigel invasion of HUVEC stimulated with VEGF; conditions: 100 nM, VEGF 50 ng mL^-1, 24 hours
Protocol: Endothelial cells were seeded over 100 μl Matrigel™ matrix (380 ng μl^−1) on a permeable ‘transwell’ support in a transwell chamber having an area of 0.33 cm^2 and 8 μm of pore-diameter at a density of 30,000 and 14,000 cells cm^−2 for BUVEC E6E7 and HUVEC cells, respectively. In the upper (luminal) compartment the cells were maintained with starving media F12K having 0.1 or 0.5% FBS for BUVEC E6E7 and HUVEC, respectively. In addition, HUVEC cells were maintained with 100 μg ml^−1 heparin. […] After 24 hours the media from both compartments and the luminal cells were removed. The abluminal cells were fixed with 100% MeOH for 10 minutes, permeabilized with TBS1x-0.5% Triton X-100, and stained with Hoechst 33342. The total number of cells in the abluminal compartment indicates the invasive activity of endothelial cells.
The inhibitory effect of 100 nM of the oligopeptide THGRGFI on the invasion of immortalized endothelial cells from the bovine umbilical vein (BUVEC E6E7) (FIG. 3A) or primary cells from the human umbilical vein (HUVEC) (FIG. 3B) stimulated in each case with VEGF (50 ng mL^−1) was compared with the inhibitory effect of 100 nM of the 123 amino acid vasoinhibin (***P<0.001).

[2] = test system: human umbilical-vein endothelial cells (HUVEC); assay: Proliferation of HUVEC stimulated with VEGF and bFGF (EdU click assay); conditions: HUVEC, 25 ng ml^-1 VEGF and 20 ng ml^-1 bFGF, 24 hours, 0.001 to 100 nM; read-out: effective dose (EC50) for inhibition of proliferation
Protocol: (§1) On a 96-well plate treated for cell culture, BUVEC E6E7 and HUVEC cells were seeded at a density of ˜14,000 and ˜11,000 cells cm^−2, respectively. BUVEC E6E7 cells were maintained in F12K culture media with 10% (v/v) fetal bovine serum (FBS) and the HUVEC in F12K media supplemented with 20% of FBS, 100 μg ml^−1 heparin and 25 μg ml^−1 of endothelial cell growth supplement (ECGS). After 24 hours, the cells were starved with FBS-reduced media (0.1% of FBS for BUVEC E6E7 and 0.5% for HUVEC) for 16 hours to synchronize cells in phase GO of the reproductive cycle. After this time, FBS and heparin were replenished only to HUVEC. The cells were then treated with vasoinhibin or the oligopeptide THGRGFI in concentrations ranging from 0.001 to 100 nM for 24 hours in the presence of 10 μM of the thymidine analog 5-Ethynyl-2′-deoxyuridine (EdU) and 50 ng ml^−1 VEGF for the BUVEC E6E7 or the combination of 25 ng ml^−1 VEGF and 20 ng ml^−1 bFGF for HUVEC. At the end of the experiment, cells were fixed with 4% paraformaldehyde, permeabilized with 0.5% Triton X-100 in TBS1x, and stained to detect the newly synthetized DNA by the incorporation of EdU using the “click” assay (which involves a copper catalyzed reaction to covalently bind fluorescent azide to the EDU incorporated to DNA). Total DNA was counterstained with Hoechst 33342 and the “click”-stained nuclei were quantified and plotted relative to the total number of Hoechst 33342-stained nuclei.
HUVEC were seeded on a 96 well plate at a density of ˜11,000 cells cm^−2 and maintained in F12K supplemented with 20% of FBS, 100 μg ml^−1 heparin and 25 μg ml^−1 endothelial cell growth supplement (ECGS). After 24 hours, the cells were synchronized in GO with starving conditions (FBS 0.5%) for 16 hours, and after that FBS and the heparin were replenished. Cells were then treated with THGRGFI, the different oligopeptides and 123 amino acids vasoinhibin, each in a concentration of 100 nM, for 24 hours in presence or absence of 10 μM of thymidine analog 5-Ethynyl-2′-deoxyuridine (EdU) and a combination of 25 ng ml^−1 VEGF and 20 ng ml^−1 bFGF. Finally, the cells were fixed with 4% paraformaldehyde, permeabilized with 0.5% of Triton X-100 in TBS1x and stained for the newly synthetized DNA with the ‘click’ method that detects the EdU incorporation. Total DNA was stained with Hoechst 33342 and the percentage of ‘click’-stained nuclei relative to total nuclei (Hoechst 33342-stained) indicated cell proliferation.
Approximately 11,000 HUVEC cells cm^−2 were seeded on a 96 well plate in F12K media with 20% FBS, 100 μg ml^−1 heparin and 25 μg ml^−1 ECGS. After 24 hours, cells were starved with 0.5% of FBS for ˜16 hours, and after that time the FBS and heparin were added again and cells treated with different doses of the alanine substituted oligopeptides for 24 hours, in the presence of EdU and a combination of 25 ng ml^−1 VEGF and 20 ng ml^−1 bFGF. Finally, the cells were fixed, permeabilized and stained to quantify the synthesis of DNA as a sign of proliferation.

[3] = test system: immortalized bovine umbilical-vein endothelial cells (BUVEC E6E7); assay: Proliferation of BUVEC E6E7 endothelial cells stimulated with VEGF (EdU click assay); conditions: BUVEC E6E7, 50 ng ml^-1 VEGF, 24 hours, 0.001 to 100 nM; read-out: effective dose (EC50) for inhibition of proliferation
Protocol: as §1
For the assay, BUVEC E6E7 cells were seeded at a density of ˜14′000 cells cm^−2 in a 96 well plate with F12K with 10% (v/v) FBS. After 24 hours, cells were starved with 0.1% of FBS for GO synchronization for ˜16 hours. Next, the cells were treated with the different oligopeptides in presence of 10 μM of the thymidine analog EdU and 50 ng ml^−1 of VEGF. Finally, the cells were fixed, permeabilized, and stained for the newly synthetized DNA by the EdU incorporation through the ‘click’ assay. The total DNA was stained with Hoechst 33342 and the percentage of ‘click’-stained nuclei over the total nuclei was a measure of proliferation.

**Q.** For “Ac-THGRGFI-NH2 [THGRGFI, Thr His Gly Arg Gly Phe Ile]”, which “inhibition of invasion of endothelial cells” value [1] is on record?
**A.** significatively inhibited

**Q.** And the EC50 [2]?
**A.** ~1 nM

**Q.** What about the EC50 [3] of the same substance?
**A.** ~1 nM

— US20260091078A1, “OLIGOPEPTIDE THAT INHIBITS ANGIOGENESIS AND VASCULAR FUNCTION” (UNIVERSIDAD NACIONAL AUTONOMA DE MEXICO, priority 2019, published 2026)
